In patent publication US20170071944A1, “MODULATORS OF TOLL-LIKE RECEPTORS FOR THE TREATMENT OF HIV” (Gilead Sciences, Inc., priority 2015, published 2017):
Where “and” joins values, the source holds several entries; their conditions need not be identical. Equal values may be shown once.

System: HIV-1 expression in PBMC cultures from HIV-1 infected subjects on cART
Test: Induced HIV-1 expression in PBMC cultures from HIV-1 infected subjects on cART (HIV-1 RNA in culture supernatant, COBAS TaqMan)
Assay type: cell-based, human
Conditions: for Fold HIV-1 Activation, Geometric Mean with ≧2-Fold-Activation / Fold HIV-1 Activation, Range with ≧2-Fold-Activation: N = 12 subjects
Experimental: In some experiments, IL-15, the TLR8 modulating compound of Example 15 or the combination of IL-15 and Example 15 were used at the indicated concentrations (Table 4). The cultures were maintained in the presence of antivirals (elvitegravir and efavirenz at 100 nM each) to prevent viral spread and amplification in order to measure the quantity of virus produced (latency reversal) by the TLR8 modulating compounds. At the end of the incubation period, cell-free culture supernatants were harvested and HIV-1 RNA levels were quantified by the COBAS® AmpliPrep/COBAS®TaqMan HIV-1 Test, v2.0 (Roche).
In each table, fold-activation is calculated as a ratio of HIV-1 RNA copies per ml of cell culture supernatants from TLR8 agonist treated samples and DMSO treated controls. Geometric mean fold-activation from three independent incubation samples for each condition of each subject's PBMCs.
To assess if the latency reversal induced by TLR8 agonism could further potentiate latency reversal by a separate mechanisms, we treated cells as described above with IL-15, Example 15, or a combination of IL-15 and Example 15 (Table 4).

[1] = Example 15 1000 nM and/or IL-15 1 nM, subjects 205-210

What does the source list for CCCC[C@H](CO)Nc1nc(N)nc2cccnc12 [Example 15]?
Fold HIV-1 Activation, Geometric Mean with ≧2-Fold-Activation (10 nM): 4.6 fold; Fold HIV-1 Activation, Range with ≧2-Fold-Activation (10 nM): 2.2-20.1 fold; N with ≧2-Fold-Activation (%) (10 nM, subjects 172-183): (42) %; Fold HIV-1 Activation, Geometric Mean with ≧2-Fold-Activation (100 nM): 4.8 fold; Fold HIV-1 Activation, Range with ≧2-Fold-Activation (100 nM): 2.2-10.1 fold; N with ≧2-Fold-Activation (%) (100 nM, subjects 172-183): (33) %; Fold HIV-1 Activation, Geometric Mean with ≧2-Fold-Activation (1,000 nM): 3.4 fold; Fold HIV-1 Activation, Range with ≧2-Fold-Activation (1,000 nM): 2.4-5.7 fold; N with ≧2-Fold-Activation (%) (1,000 nM, subjects 172-183): (58) %; Fold HIV-1 Activation, Geometric Mean with ≧2-Fold-Activation (10, 100, or 1000 nM): 4.4 fold; Fold HIV-1 Activation, Range with ≧2-Fold-Activation (10, 100, or 1000 nM): 2.2-20.1 fold; Fold HIV-1 Activation (Example 15 10 nM, 4 days, individual subjects 172-183, vs DMSO): 2.6 fold and 2.2 fold and 4.7 fold and 1.2 fold and 1.9 fold and 1.3 fold and 0.3 fold and 0.5 fold and 1.0 fold and 4.1 fold and 20.1 fold and 0.8 fold; Fold HIV-1 Activation (Example 15 100 nM, 4 days, individual subjects 172-183, vs DMSO): 3.8 fold and 6.6 fold and 2.2 fold and 1.5 fold and 1.0 fold and 0.5 fold and 0.2 fold and 0.1 fold and 0.7 fold and 1.8 fold and 10.1 fold and 1.3 fold; Fold HIV-1 Activation, Geometric Mean (Example 15 1000 nM and/or IL-15 1 nM, N = 6 subjects): 2.1 fold; Fold HIV-1 Activation (Example 15 1000 nM and/or IL-15 1 nM, individual subjects 205-210, vs DMSO): 4.7 fold and 0.8 fold and 9.7 fold and 2.0 fold and 1.9 fold and 0.6 fold; N with ≧2-Fold-Activation [1]: 3 of 6; N with ≧2-Fold-Activation (%) [1]: 50%; Fold HIV-1 Activation (Example 15 1,000 nM, 4 days, individual subjects 172-183, vs DMSO): 2.7 fold and 2.4 fold and 3.3 fold and 1.2 fold and 4.7 fold and 0.3 fold (2×) and 3.4 fold and 3.0 fold and 1.3 fold and 1.6 fold and 5.7 fold
